Assay results taken from patent publication US9783518B2, “Therapeutic agent and treatment method for ameliorating uremia” (Toray Industries, Inc., priority 2005, dated 2017).

Tested on: healthy cats
Assay: Blood pressure and heart rate (oscillometric) in healthy cats
Assay type: in vivo, cat
Description: In this study, 3 male cats and 2 female cats, totally 5 Japanese cats, aging 3 to 6 years old were used, which were raised in an animal hospital and for which no abnormalities were observed clinically and by blood test. The subject cats were individually placed in each cage in which each cat was allowed to take water ad libitum, and each cat was fed twice a day after measuring the necessary items. For the purpose of acclimatization, the cats were measured for blood pressure noninvasively twice a day for 2 weeks.
Blood pressure and heart rate were measured as follows: These were noninvasively measured oscillometrically by using Life Scope 9 produced by NIHON KOHDEN. Systolic pressure, diastolic pressure and heart rate were measured 5 times each before the administration of beraprost sodium and 30 minutes, 1 hour, 2 hours and 3 hours after administration of beraprost sodium at the right foreleg of each cat. From the 5 measured values, the maximum and minimum values were excluded, and the average of the remaining 3 measured values was adopted as the measured value of the individual at the time point. The measurements were carried out every time for 7 days, and the responses by the respective administrations had about the same pattern. In the Example, the results (FIGS. 1 and 2) at the first administration of beraprost sodium are shown as a representative.
In each administration series, the same cat was used in each administration series as the subject cat for the correctness of the evaluation of the test drug. To eliminate the influence of the test drug of the previous series, wash out period of 2 weeks were given after the termination of the respective series. In the beraprost sodium administration series and the placebo administration series, the solution-containing capsules prepared in Example 2 were used. Administration was performed orally at fasting twice a day at intervals of 12 hours for continuous 7 days.
Statistical analysis was carried out using a statistical software Stat View J-4.5 (Abacus Concepts). Since the parameter values before and after the administration to the same individual are compared, significant test was carried out by the paired t-test. In any of the cases, when the significance level was less than 5%, it was judged as significant.

[1] = first administration, 10-100 μg/kg oral

How did the “maximum change in heart rate (increase)” value (100 μg/kg oral, 30 minutes after administration) turn out when `CC#CC[C@@H](C)[C@H](O)/C=C/[C@@H]1[C@H]2c3cccc(CCCC(=O)[O-])c3O[C@H]2C[C@H]1O.[Na+]` (mixture of isomers) [beraprost sodium, Sodium rac-(1R,2R,3aS,8bS)-2,3,3a,8b-tetrahydro-2-hydroxy-1-[(E)-(3S,4RS)-3-hydroxy-4-methyloct-1-en-6-ynyl]-1H-cyclopenta[b][1]benzofuran-5-butanoate] was run?
The value was “about 25%”.

And the “time to restoration of heart rate to the level before administration” value (any dose (10-100 μg/kg oral))?
The value was no more than 2 h.

What about the diastolic pressure [1] of the same compound?
The diastolic pressure was “No significant change”.

What about the pulse pressure [1] of the same compound?
Its pulse pressure is “No significant change”.

And the systolic pressure [1]?
Its systolic pressure is “No significant change”.

And the “change in heart rate” value (from 30 μg/kg/BID oral, 30 minutes to 1 hour after administration, not at 10 μg/kg/BID)?
Its value is “significant (p<0.05) dose-dependent increase”.
